In brackets after ≈: the same amount, converted by molar mass. Counter-ions that a name gives are not always drawn.
Assays:
[1] = tested on: SK-N-SH (human neuroblastoma cell); assay: Antitumor activity assay in vitro (MTT); assay type: cell-based; settings: SK-N-SH cells, 72 hours, Bliss method; for IC50: Homo sapiens
Method: (§1) (1) Five cell strains, SK-N-SH (human neuroblastoma cell), NCI-H226 (human lung cancer cell), Bel7402 (human liver cancer cell), A549 (human non-small cell lung cancer), and MCF7 (human breast cancer cell), were thawed and stably passaged for two or three times, respectively, and then digested with trypsin solution (0.25%) so as to be removed from the bottom of culture flasks. The digested cell solution was poured into a centrifuge tube, to which culture media was added to stop the digestion. The centrifuge tube was centrifuged at 1300 r/min for 3 min, the supernatant was removed gently and then 5 mL culture media was added. The cells were pipetted and mixed homogeneously. 10 μL cell suspension was taken into a cell counting plate for counting, wherein the cell concentration was adjusted to 10^4 cells/well. Each well of the 96-well plates, except for A1 well as blank control, contained 100 μL cell suspension. The 96-well plates were placed in an incubator and cultivated for 24 hours.
(§2) (2) 50 μL dimethyl sulfoxide was used to dissolve the test samples, and then a suitable amount of culture media was added so as to reach a final concentration of 2 mg/mL. Then the samples were diluted to 100, 20, 4, 0.8, 0.16 μg/mL in a 24-well plate, respectively. […] The 96-well plates were placed in an incubator and cultivated for 72 hours.
(§3) (3) The culture media containing the compounds in the 96-well plates was discarded, and the cells were washed with phosphate buffered solution (PBS) twice. Each well was added with 100 μL MTT (tetrazole) (0.5 mg/mL), and then placed in an incubator to incubate for 4 hours, after which MTT solution was discarded and 100 μL dimethyl sulfoxide was added thereto. The reaction product of survival cells with MTT, i.e. formazan, was dissolved completely by oscillation on a magnetic oscillator, then placed into a microplate reader to measure the results, and the IC50 values of compounds could be deduced by Bliss method. The control, N′-[(2-hydroxy-3-allyl)phenylmethylene]-2-(4-benzylpiperazin-1-yl)acethydrazide(PAC-1), was produced according to the method of patent WO2008/134474 A2.

[2] = tested on: NCI-H226 (human lung cancer cell); assay: Antitumor activity assay in vitro (MTT); assay type: cell-based; settings: NCI-H226 cells, 72 hours, Bliss method; for IC50: Homo sapiens, read-out: IC50 NCI-226
Method: as §1, §2, §3

[3] = tested on: MCF7 (human breast cancer cell); assay: Antitumor activity assay in vitro (MTT); assay type: cell-based; settings: MCF7 cells, 72 hours, Bliss method; for IC50: Homo sapiens
Method: as §1, §2, §3

[4] = tested on: A549 (human non-small cell lung cancer); assay: Antitumor activity assay in vitro (MTT); assay type: cell-based; settings: A549 cells, 72 hours, Bliss method; for IC50: Homo sapiens
Method: as §1, §2, §3

[5] = tested on: Bel7402 (human liver cancer cell); assay: Antitumor activity assay in vitro (MTT); assay type: cell-based; settings: 72 hours, Bliss method; for IC50 Bel7402: Bel7402 cells; for IC50: Homo sapiens, Bel-7402, Bel7402 cells
Method: as §1, §2, §3

[6] = tested on: cancer cells; settings: after treatment with PAC-1; cited from earlier work
[7] = biological target: T1, Procaspase-3 (Homo sapiens, UniProt P42574); settings: both in vitro and in vivo; cited from earlier work
T1 sequence (P42574 1-277): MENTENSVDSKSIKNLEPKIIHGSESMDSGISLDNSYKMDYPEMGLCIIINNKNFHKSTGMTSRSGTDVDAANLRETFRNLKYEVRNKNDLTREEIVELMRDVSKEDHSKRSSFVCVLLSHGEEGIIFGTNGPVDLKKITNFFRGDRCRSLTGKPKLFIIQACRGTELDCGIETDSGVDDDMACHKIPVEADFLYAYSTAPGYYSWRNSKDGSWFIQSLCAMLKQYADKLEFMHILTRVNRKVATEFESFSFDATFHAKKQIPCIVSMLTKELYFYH

Row | Molecule | IC50 SK [1] | IC50 NCI-226 [2] | IC50 MCF7 [3] | IC50 A549 [4] | IC50 Bel7402 [5] | IC50 [1] | IC50 [2] | IC50 [3] | IC50 [4] | IC50 [5] | time to induction of apoptosis of cancer cells after treatment [6] | activation of Procaspase-3 [7]
1 | Cl.O=C(Cc1nc2ccccc2[nH]1)NN=Cc1cc(C(=O)CCl)ccc1O [Example 22, N′-[(2-hydroxy-5-chloroacetyl)phenylmethylene]-1H-benzo[d]imidazole-2-acethydrazide hydrochloride] | 1.0 µg/mL | 0.8 µg/mL | 3.4 µg/mL | 1.7 µg/mL | 0.5 µg/mL |  |  |  |  |  |  | 
2 | Cc1ccc(O)c(C=NNC(=O)c2ccc3nc[nH]c3c2)c1.Cl [Example 7, N′-[(2-hydroxy-5-methyl)phenylmethylene]-1H-benzo[d]imidazole-6-formhydrazide hydrochloride] | 3.2 µg/mL | 2.7 µg/mL | 1.9 µg/mL | 12 µg/mL | 5.4 µg/mL |  |  |  |  |  |  | 
3 | C=CCN1C(=O)NC(=O)C(C=NNC(=O)c2ccc3nc[nH]c3c2)C1=O (centres unmarked) [Example 14, N′-[(1-allyl-2,4,6-pyrimidinetrione-5-yl)methylene]-1H-benzo[d]imidazole-6-formhydrazide] |  |  |  |  |  | 0.9 µg/mL (≈ 2.54 µM) | 2.5 µg/mL (≈ 7.06 µM) | 1.7 µg/mL (≈ 4.8 µM) | 10 µg/mL (≈ 28.2 µM) | 2.2 µg/mL (≈ 6.21 µM) |  | 
4 | Cc1cc(C)c(C=NNC(=O)Cc2nc3ccccc3[nH]2)c(O)c1C.Cl [Example 23, N′-[(2-hydroxy-3,4,6-trimethyl)phenylmethylene]-1H-benzo[d]imidazole-2-acethydrazide hydrochloride] | 0.3 µg/mL | 0.3 µg/mL | 2.6 µg/mL | 2.4 µg/mL | 3.1 µg/mL |  |  |  |  |  |  | 
5 | Cl.O=C(NN=Cc1cc(OCc2ccc(Cl)cc2)ccc1O)c1ccc2nc[nH]c2c1 [Example 12, N′-{[2-hydroxy-5-(4-chlorobenzyloxy)]phenylmethylene}-1H-benzo[d]imidazole-6-formhydrazide hydrochloride] | 3.0 µg/mL | 1.7 µg/mL | 2.1 µg/mL | 5.8 µg/mL | 3.3 µg/mL |  |  |  |  |  |  | 
6 | Cl.O=C(NN=Cc1ccc(OCc2ccccc2)cc1O)c1ccc2nc[nH]c2c1 [Example 13, N′-[(2-hydroxy-4-benzyloxy)phenylmethylene]-1H-benzo[d]imidazole-6-formhydrazide hydrochloride] | 1.1 µg/mL | 2.4 µg/mL | 1.8 µg/mL | 2.6 µg/mL | 3.7 µg/mL |  |  |  |  |  |  | 
7 | O=C(NN=Cc1c(O)ccc2ccccc12)c1ccc2nc[nH]c2c1 [Example 3, N′-[(2-hydroxy-1-naphthyl)methylene]-1H-benzo[d]imidazole-6-formhydrazide hydrochloride] |  |  |  |  |  | 3 µg/mL | 1.1 µg/mL | 1.2 µg/mL | 0.7 µg/mL | 2.5 µg/mL |  | 
8 | Cc1ccc(C=NNC(=O)c2ccc3nc[nH]c3c2)c(O)c1.Cl [Example 2, N′-[(2-hydroxy-4-methyl)phenylmethylene]-1H-benzo[d]imidazole-6-formhydrazide hydrochloride] | 2.1 µg/mL | 1.0 µg/mL | 1.8 µg/mL | 1.9 µg/mL | 2.4 µg/mL |  |  |  |  |  |  | 
9 | Cl.O=C(NN=Cc1ccc(OCc2ccc(Cl)cc2)cc1O)c1ccc2nc[nH]c2c1 [Example 9, N′-{[2-hydroxy-4-(4-chlorobenzyloxy)]phenylmethylene}-1H-benzo[d]imidazole-6-formhydrazide hydrochloride] | 0.2 µg/mL | 0.5 µg/mL | 0.6 µg/mL | 0.9 µg/mL | 1.5 µg/mL |  |  |  |  |  |  | 
10 | CC(C)(C)c1cc(C=NNC(=O)c2ccc3nc[nH]c3c2)c(O)c(C(C)(C)C)c1.Cl [Example 1, N′-[(2-hydroxy-3,5-di-tert-butyl)phenylmethylene]-1H-benzo[d]imidazole-6-formhydrazide hydrochloride] | 0.08 µg/mL | 0.07 µg/mL | 0.8 µg/mL | 0.4 µg/mL | 0.56 µg/mL |  |  |  |  |  |  | 
11 | Cc1ccc(C(C)C)c(C=NNC(=O)c2ccc3nc[nH]c3c2)c1O.Cl [Example 8, N′-[(2-hydroxy-3-methyl-6-isopropyl)phenylmethylene]-1H-benzo[d]imidazole-6-formhydrazide hydrochloride] | 3.0 µg/mL | 1.0 µg/mL | 1.7 µg/mL | 1.5 µg/mL | 2.4 µg/mL |  |  |  |  |  |  | 
12 | N′-{[2-hydroxy-3-(1-methyl-2-allyl)]phenylmethylene}-1H-benzo[d]imidazole-6-formhydrazide hydrochloride [Example 10] | 1.1 µg/mL | 1.0 µg/mL | 3.8 µg/mL | 1.2 µg/mL | 3.3 µg/mL |  |  |  |  |  |  | 
13 | C=CCc1cccc(/C=N/NC(=O)CN2CCN(Cc3ccccc3)CC2)c1O [PAC-1, N′-[(2-hydroxy-3-allyl)phenylmethylene]-2-(4-benzylpiperazin-1-yl)acethydrazide, reference compound] |  |  |  |  |  | 4.3 µg/mL (≈ 11 µM) | 1.7 µg/mL (≈ 4.33 µM) | 2.6 µg/mL (≈ 6.62 µM) | 1.9 µg/mL (≈ 4.84 µM) | 3.8 µg/mL (≈ 9.68 µM) | ≤ 23 h | activate Procaspase-3 significantly
14 | O=C(NN=Cc1ccccc1O)c1ccc2nc[nH]c2c1 [Example 11, N′-[(2-hydroxy)phenylmethylene]-1H-benzo[d]imidazole-6-formhydrazide hydrochloride] |  |  |  |  |  | 2.7 µg/mL | 2.3 µg/mL | 2.3 µg/mL | 10 µg/mL | 3.2 µg/mL |  | 
15 | C=CCc1cccc(C=NNC(=O)c2ccc3nc[nH]c3c2)c1O.Cl [Example 4, N′-[(2-hydroxy-3-allyl)phenylmethylene]-1H-benzo[d]imidazole-6-formhydrazide hydrochloride] | 1.3 µg/mL | 0.2 µg/mL | 3.3 µg/mL | 2 µg/mL | 1.3 µg/mL |  |  |  |  |  |  | 
16 | Cl.O=C(NN=Cc1cc(OCc2cccc(Cl)c2)ccc1O)c1ccc2nc[nH]c2c1 [Example 18, N′-{[2-hydroxy-5-(3-chlorobenzyloxy)]phenylmethylene}-1H-benzo[d]imidazole-6-formhydrazide hydrochloride] | 1.7 µg/mL | 2.3 µg/mL | 2.7 µg/mL | 1.5 µg/mL | 3.1 µg/mL |  |  |  |  |  |  | 
17 | Cl.O=C(Cc1nc2ccccc2[nH]1)NN=Cc1cc(OCc2ccccc2)ccc1O [Example 25, N′-[(2-hydroxy-5-benzyloxy)phenylmethylene]-1H-benzo[d]imidazole-2-acethydrazide hydrochloride] | 0.4 µg/mL | 1.6 µg/mL | 1.0 µg/mL | 4.1 µg/mL | 3.7 µg/mL |  |  |  |  |  |  | 
18 | Cc1cc(C)c(C=NNC(=O)c2ccc3nc[nH]c3c2)c(O)c1C.Cl [Example 6, N′-[(2-hydroxy-3,4,6-trimethyl)phenylmethylene]-1H-benzo[d]imidazole-6-formhydrazide hydrochloride] | 1.8 µg/mL | 1.7 µg/mL | 3.2 µg/mL | 3.1 µg/mL | 2.6 µg/mL |  |  |  |  |  |  | 
